Measured values taken from patent publication US7476655B2, “Materials and methods for regulating blood flow” (University of Florida Research Foundation, Inc., priority 2005, dated 2009).

Legend:
hypoxic mice lungs = test: vasodilator response in excised hypoxic mouse lungs; design: species or system C57BL/6J mice; details: 15 μM, with or without L-NAME 100 μM (FIG. 4)
Description: Specific pathogen-free female C57BL/6J mice (30-35 g body weight) were anesthetized with pentobarbital (60 mg/kg, ip), and the lungs were excised from the thorax, ventilated with air (control) or with 0% oxygen for 1 hour at 60 breaths/min with a SAR-830 series small animal ventilator at a tidal volume of 0.6-0.8 ml/100 g body weight. After development of hypoxic vasoconstriction, vasodilator response was monitored by addition of 15 μM each of P3, P4, P6 or zaprinast with or without the presence of nitric oxide synthase inhibitor (L-NAME, 100 μM). The vasodilatory response was continuously monitored as previously described (Hu et al. (2004) Am. J. Physiol. Lung Cell Mol. Physiol. 286:[…]-[…]).

cGMP-specific PDE = cGMP-specific PDE activity in PAEC (hydrolysis of 3H-cGMP in supernatant); assay type: cell-based; details: 10 μM, 1 hr at 37° C., compared to control (FIG. 3)
Description: The synthetic peptides were evaluated to asses any association with modulation of cGMP-specific PDE activity in PAEC.
Cell monolayers were incubated in RPMI 1640 medium with or without (control) the presence of 10 μM each of P3, P4, P6 or Zaprinast for 1 hr at 37° C. After incubation, cells were washed, homogenized, and supernatant were collected by centrifugation at 15,000×g for 15 min at 4° C. PDE activity in the supernatant were measured by monitoring hydrolysis of 3H-cGMP as previously described (16).

eNOS = test: catalytic activity of eNOS in cultured pulmonary artery endothelial cells ([3H]-citrulline formation from [3H]-L-arginine); assay type: cell-based; details: PAEC monolayers, varying concentrations, 37° C., 1 hr, compared to control (FIG. 2)
Description: The effects of the synthetic peptides (P3, P4, and P6) of the subject invention on the catalytic activity of eNOS were examined using a cultured pulmonary artery endothelial cell (PAEC) model.
PAEC monolayers were incubated in RPMI 1640 medium with or without (control) the presence of varying concentrations of P3, P4, or P6 at 37° C. for 1 hr. After incubation, the catalytic activity of eNOS was determined as previously described by monitoring formation of [3H]-citrulline from [3H]-L-arginine (Chen, S., J. M. Patel and E. R. Block ER (2000) “Angiotensin IV-mediated pulmonary artery vasorelaxation is due to endothelial intracellular calcium release” Am. J. Physiol. Lung Cell Mol. Physiol. 279:L849-L856; and Patel, J. M., Y. D. Li, J. L. Zhang et al. (1999) “Increased expression of calreticulin is linked to Ang-IV-mediated activation of lung endothelial NOS” Am. J. Physiol Lung Cell Mol. Physiol. 277:L794-L801).

NO release = NO release in perfusates of in situ perfused rat lungs; assay type: in vivo, Sprague Dawley rats
Description: Specific pathogen-free Sprague Dawley rats (200-250 g body weight) were anesthetized with pentobarbital (60 mg/kg, ip). After confirmation of deep anesthesia, the trachea was cannulated with an 18-G blunt-tipped catheter and ventilated (SAR-830/p small animal ventilator, CWE, Ardmoore, Pa.) at a tidal volume of 2.5 ml/min with warm humidified 21% O2/5% CO2/74% N2 at 60 breaths/min with peak inspiratory and expiratory pressures of 9 cm and 3 cm H2O, respectively. A thoracotomy was performed and 100 units heparin injected into the right ventricle (RV). PE-90 polyethylene tubing connected to a Cook Double Lumen Central Venous Catheter (Cook Critical Care, Bloomington, Ind.) was placed in the left atrium through the left vetricle and tied in place. […] After 30 min, the ventilation mixture was changed to 2% O2/5% CO2/93% N2 (hypoxic) for 30 min and change in PA pressure was continuously recorded using PO-NE-MAH-P3P Lung Perfusion System software (Gould Instrument System) and the perfusate samples were collected to determine level of NO release as previously reported (Hu et al. Am. J. Physiol. Lung Cell Mol. Physiol. 286: L1066-L1074, 2004). The ventilation gas (hypoxic) was return to normoxic gas, and the lungs were perfused with P3 (20 and 40 μM) in RPMI 1640 or RMPI 1640 for 10 min, after which the hypoxic challenge with 2% O2 was repeated, and the PA pressure response was recorded.

hypoxic lungs [1] = test: in vivo vasodilation effect in rats exposed to hypoxia (10% inspired O2) for 2 to 6 weeks; design: species or system Sprague Dawley rats; details: 10 mg/kg or 20 mg/kg ip once every day
Description: Specific pathogen-free Sprague Dawley rats (200-250 g body weight) were exposed to hypoxia (10% inspired O2) in a Coy Laboratory hypoxia chamber equipped with auto purge, airlock, and automated live animal filtration and dehumidification systems for 2 to 6 weeks. Control (normoxia) animals were maintained in similar humidity and temperature environment. Hypoxia exposure was 24 hr/day, except when the chamber was open twice a week for 10-15 min each to clean cages and replenish food and water. All rats were exposed to 12:12-hr light/dark cycle and allowed free access to standard rat food and water. Some rats were administered P3 (+P3) in saline (10 mg/kg or 20 mg/kg, ip) or saline alone (−P3) once every day starting 24 hr prior to initiation of exposure to hypoxia. After 2, 3, and 6 weeks exposure animals were use to measure various parameters including changes in pulmonary artery pressure, lung weight/body weight (LW/BW) ratio, and right vertical/heart weight (RV/HW) ratio.

hypoxic lungs [2] = test: in situ lung perfusion, pulmonary arterial pressure, rat model of hypoxic pulmonary hypertension; assay type: in vivo, Sprague Dawley rats; details: for pulmonary arterial pressure (PAP): infusion of 20 μM (FIG. 6)
Description: Specific pathogen-free Sprague Dawley rats (200-250 g body weight) were anesthetized with pentobarbital (60 mg/kg, ip). After confirmation of deep anesthesia, the trachea was cannulated with an 18-G blunt-tipped catheter and ventilated (SAR-830/p small animal ventilator, CWE, Ardmoore, Pa.) at a tidal volume of 2.5 ml/min with warm humidified 21% O2/5% CO2/74% N2 at 60 breaths/min with peak inspiratory and expiratory pressures of 9 cm and 3 cm H2O, respectively. A thoracotomy was performed and 100 units heparin injected into the right ventricle (RV). PE-90 polyethylene tubing connected to a Cook Double Lumen Central Venous Catheter (Cook Critical Care, Bloomington, Ind.) was placed in the left atrium through the left vetricle and tied in place. After placement of another PE-90 polyethylene tube connected with a double lumen catheter in the main pulmonary artery (PA), the lung were ventilated with 21% O2/5% CO2/74% N2 (normoxic) at constant end-expiratory pressure of […] and […]. After 30 min, the ventilation mixture was changed to 2% O2/5% CO2/93% N2 (hypoxic) for 30 min and change in PA pressure was continuously recorded using PO-NE-MAH-P3P Lung Perfusion System software (Gould Instrument System) and the perfusate samples were collected to determine level of NO release as previously reported (Hu et al. Am. J. Physiol. Lung Cell Mol. Physiol. 286: L1066-L1074, 2004). The ventilation gas (hypoxic) was return to normoxic gas, and the lungs were perfused with P3 (20 and 40 μM) in RPMI 1640 or RMPI 1640 for 10 min, after which the hypoxic challenge with 2% O2 was repeated, and the PA pressure response was recorded.

| Molecule | vasorelaxation of hypoxic mice lungs (hypoxic mice lungs) | cGMP-specific catalytic activity of PDE (cGMP-specific PDE) | catalytic activity of eNOS (eNOS) | NO release in perfusates (NO release; hypoxic lungs (FIG. 7)) | NO release in perfusates (NO release; normoxic lungs (FIG. 7)) | hypoxia-induced PAP pressure (hypoxic lungs [1]; hypoxia (FIG. 11)) | hypoxia-induced RV/HW ratio (hypoxic lungs [1]; hypoxia (FIG. 12)) | magnitude of reduction of PAP in hypoxic lung versus normoxic lungs (hypoxic lungs [2]; hypoxic compared with normoxic lungs) | pulmonary arterial pressure (PAP) (hypoxic lungs [2]; hypoxic lungs) | attenuation of PAP at 40 μM relative to 20 μM (hypoxic lungs [2]; normoxic and hypoxic lungs, 40 μM) | pulmonary arterial pressure (PAP) (hypoxic lungs [2]; normoxic lungs) |
| --- | --- | --- | --- | --- | --- | --- | --- | --- | --- | --- | --- |
| CCCOc1ccccc1-c1nc2nn[nH]c2c(=O)[nH]1 [Zaprinast, reference compound] | vasorelaxtion | loss PDE activity |  |  |  |  |  |  |  |  |  |
| KKRFNSISCSSWRRKRKKR (Peptide (P4) used according to the subject invention.) |  | significantly reduced | significantly enhanced in a dose-dependent manner |  |  |  |  |  |  |  |  |
| KRFNSISCSSWRRKR (Peptide (P3) used according to the subject invention.) |  | significantly reduced | significantly enhanced in a dose-dependent manner | increases | increases | attenuated | attenuated | much greater | significantly attenuated | comparable | significantly attenuated |
| WRRKRKES (Peptide (P6) used according to the subject invention.) |  | significantly reduced | significantly enhanced in a dose-dependent manner |  |  |  |  |  |  |  |  |
